Broadly, the IC50 is the concentration at which inhibition is half-maximal. Lower therefore signals inhibition by little substance.

The target in this test is benzodiazepin recognition sites in a membrane preparation from rat brain. The test can be described thus: 3H-Flunitrazepam binding (displacement from benzodiazepine recognition sites; anxiolytic activity). The note with it: rat cerebral cortex membranes; 2 nM 3H-flunitrazepam; pH 6.9; 20 minutes at 0-4 °C; log-probit analysis. Details: species or system rat (male Wistar).
For `CCn1ncc2c3noc(-c4cccc(Cl)c4)c3cnc21` [3-(3-Chlorophenyl)-6-ethyl-6H-isoxazolo[3,4-d]pyrazolo[3,4-b]pyridine], the IC50 worked out at 4400 nM. In the case of `CCn1ncc2c3noc(-c4ccc(Cl)cc4)c3cnc21` [3-(4-Chlorophenyl)-6-ethyl-6H-isoxazolo[3,4-d]pyrazolo[3,4-b]pyridine] it was 400 nM; in that of `CCn1ncc2c3noc(-c4ccccc4OC)c3cnc21` [6-Ethyl-3-(2-methoxyphenyl)-6H-isoxazolo[3,4-d]pyrazolo[3,4-b]pyridine], 2000 nM.

Turning to `CCn1ncc2c3noc(-c4cccc(F)c4)c3cnc21` [6-Ethyl-3-(3-fluorophenyl)-6H-isoxazolo[3,4-d]pyrazolo[3,4-b]pyridine], the IC50 amounted to 2300 nM. Take `CCn1ncc2c3noc(-c4ccc(F)cc4)c3cnc21` [6-Ethyl-3-(4-fluorophenyl)-6H-isoxazolo[3,4-d]pyrazolo[3,4-b]pyridine]: the IC50 was found to be 530 nM.

`CCn1ncc2c3noc(-c4ccc(OC)cc4)c3cnc21` [6-Ethyl-3-(4-methoxyphenyl)-6H-isoxazolo[3,4-d]pyrazolo[3,4-b]pyridine] had an IC50 of 1200 nM. In turn, `CCn1ncc2c3noc(-c4ccc(C)cc4)c3cnc21` [6-Ethyl-3-(4-tolyl)-6H-isoxazolo[3,4-d]pyrazolo[3,4-b]pyridine] had an IC50 of 990 nM. In the case of `CCn1ncc2c3noc(-c4ccccc4)c3cnc21` [6-Ethyl-3-phenyl-6H-isoxazolo[3,4-d]pyrazolo[3,4-b]pyridine] it was 470 nM; in that of `CNC1=Nc2ccc(Cl)cc2C(c2ccccc2)=[N+]([O-])C1` [Chlordiazepoxide, reference compound], 340 nM.

These data come from patent publication US4624955A, “6H-isoxazolo[3,4-d]pyrazolo[3,4-b]pyridines, method for their preparation and use as anxiolytic agents” (Hoechst-Roussel Pharmaceuticals, priority 1985, dated 1986).
